This experiment deals with T1, human CGRP receptor (Homo sapiens, UniProt O60894+Q16602).
T1 construct: SK-N-MC cells that endogenously express the human CGRP receptor; endogenous in cells; host or cells: SK-N-MC cells (membrane homogenates)
The experiment in a line: Radioligand binding assay, [125I]-CGRP competition on SK-N-MC cell homogenates. To be noted: Binding data, [125I]-CGRP 40 pM, room temperature. The method, then: Tissue culture. SK-N-MC cells were grown at 37° C. in 5% CO2 as a monolayer in medium consisting of MEM with Earle's salts and L-glutamine (Gibco) supplemented with 10% fetal bovine serum (Gibco).
Radioligand binding assays. Cells were rinsed twice with phosphate-buffered saline (155 mM NaCl, 3.3 mM Na2HPO4, 1.1 mM KH2PO4, pH 7.4), and incubated for 5-10 min. at 4° C. in hypotonic lysis buffer consisting of 10 mM Tris (pH 7.4) and 5 mM EDTA. Cells were transferred from plates to polypropylene tubes (16×100 mm), homogenized and centrifuged at 32,000×g for 30 min. Pellets were resuspended in buffer consisting of 50 mM Tris (pH 7.4) and 1 mM EDTA, homogenized, and centrifuged again at 32,000×g for 30 min. Pellets were resuspended in 100 mM Tris-Cl pH 7.5, 10 mM MgCl2, 0.1% mammalian protease inhibitor cocktail (Sigma) and stored at −80° C. until needed. On the day of an experiment, homogenates were thawed and homogenized again. Binding of [^125I]-CGRP (NEN) was carried out in buffer containing 50 mM Tris-Cl pH 7.5, 5 mM MgCl2, 0.5% BSA. Homogenates (3.5 μg protein/well) were incubated with competitor compounds (solubilized in 100% DMSO at 100× their final assay concentrations) for one hour at room temperature. Then [^125I]-CGRP was added (40 pM final concentration) and the reaction incubated for one additional hour at room temperature. Assays were stopped by addition of cold wash buffer (20 mM Tris-Cl pH 7.5, 0.1% BSA) immediately followed by filtration over glass fiber filters (Whatman GF/B) previously soaked in 0.5% PEI. Non-specific binding was defined with 100 nM CGRP.

Among the data in patent US20050209256A1, “Novel beta-turn mimetics as calcitonin gene related peptide receptor antagonists” (priority 2004, published 2005) are IC50 values, retold here.

In general, IC50 refers to the concentration that inhibits the measured activity by half. A lower IC50 goes with inhibition by little substance.

Compound `CC(=O)c1ccc(NC(=O)N2CCC(=O)N3[C@@H]2CN(CCc2cccc(F)c2)C(=O)[C@@H]3COCc2ccccc2)cc1` [Compound 32, (6S,9aS)-6-Benzyloxymethyl-8-[2-(3-fluoro-phenyl)-ethyl]-4,7-dioxo-hexahydro-pyrazino[1,2-a]pyrimidine-1-carboxylic acid (4-acetyl-phenyl)-amide] came in with a 50% inhibitory concentration (IC50) of 598 nM.

Compound `CC(=O)c1ccc(NC(=O)N2CCC(=O)N3[C@@H]2CN(CCc2cccc(F)c2)C(=O)[C@@H]3Cc2ccc(OCc3ccccc3)cc2)cc1` [Compound 33, (6S,9aS)-6-(4-Benzyloxy-benzyl)-8-[2-(3-fluoro-phenyl)-ethyl]-4,7-dioxo-hexahydro-pyrazino[1,2-a]pyrimidine-1-carboxylic acid (4-acetyl-phenyl)-amide] yielded an IC50 of 2260 nM.

The compound `CC(=O)c1ccc(NC(=O)N2CCC(=O)N3[C@@H]2CN(CCc2cccc(F)c2)C(=O)[C@@H]3Cc2cc(Br)c(O)c(Br)c2)cc1` [Compound 34, (6S,9aS)-6-(3,5-Dibromo-4-hydroxy-benzyl)-8-[2-(3-fluoro-phenyl)-ethyl]-4,7-dioxo-hexahydro-pyrazino[1,2-a]pyrimidine-1-carboxylic acid (4-acetyl-phenyl)-amide] came in with an IC50 of 1170 nM.

Compound `CC(=O)c1ccc(NC(=O)N2CCC(=O)N3[C@@H]2CN(CCc2cccc(F)c2)C(=O)[C@@H]3CCS(C)(=O)=O)cc1` [Compound 36, (6S,9aS)-8-[2-(3-Fluoro-phenyl)-ethyl]-6-(2-methanesulfonyl-ethyl)-4,7-dioxo-hexahydro-pyrazino[1,2-a]pyrimidine-1-carboxylic acid (4-acetyl-phenyl)-amide] came in with a 50% inhibitory concentration (IC50) of 350 nM.

The compound `CC[C@@H](C)[C@H]1C(=O)N(CCc2cccc(F)c2)C[C@@H]2N(C(=O)Nc3ccc(C(C)=O)cc3)CCC(=O)N12` [Compound 39, (6S,9aS)-6-(1R-methyl-propyl)-8-[2-(3-fluoro-phenyl)-ethyl]--4,7-dioxo-hexahydro-pyrazino[1,2-a]pyrimidine-1-carboxylic acid (4-acetyl-phenyl)-amide] gave a half-maximal inhibitory concentration (IC50) of 233 nM.

`CC(=O)c1ccc(NC(=O)N2CCC(=O)N3[C@@H]2CN(CCc2cccc(F)c2)C(=O)[C@@H]3CCC(N)=O)cc1` [Compound 40, (6S,9aS)-6-(2-Carbamoyl-ethyl)-8-[2-(3-fluoro-phenyl)-ethyl]-4,7-dioxo-hexahydro-pyrazino[1,2-a]pyrimidine-1-carboxylic acid (4-acetyl-phenyl)-amide] registered a half-inhibitory concentration (IC50) of 2360 nM.

The compound `CC(=O)c1ccc(NC(=O)N2CCC(=O)N3[C@@H](C4CCNCC4)C(=O)N(CCc4cccc(F)c4)C[C@H]23)cc1` [Compound 43, (6S,9aS)-8-[2-(3-Fluoro-phenyl)-ethyl]-4,7-dioxo-6-piperidin-4-yl-hexahydro-pyrazino[1,2-a]pyrimidine-1-carboxylic acid (4-acetyl-phenyl)-amide] yielded a 50% inhibitory concentration (IC50) of 4000 nM.

`CC(=O)c1ccc(NC(=O)N2CCC(=O)N3[C@@H](c4ccccc4)C(=O)N(CCc4cccc(F)c4)C[C@H]23)cc1` [Compound 46, (6S,9aS)-8-[2-(3-Fluoro-phenyl)-ethyl]-4,7-dioxo-6-phenyl-hexahydro-pyrazino[1,2-a]pyrimidine-1-carboxylic acid (4-acetyl-phenyl)-amide] had a half-maximal inhibitory concentration (IC50) of 167 nM.

For the compound `CC(=O)c1ccc(NC(=O)N2CCC(=O)N3[C@@H](C4CCCCC4)C(=O)N(CCc4cccc(F)c4)C[C@H]23)cc1` [Compound 48, (6S,9aS)-6-Cyclohexyl-8-[2-(3-fluoro-phenyl)-ethyl]-4,7-dioxo-hexahydro-pyrazino[1,2-a]pyrimidine-1-carboxylic acid (4-acetyl-phenyl)-amide], the 50% inhibitory concentration (IC50) was determined as 115 nM.

Consider `CC(=O)c1ccc(NC(=O)N2CCC(=O)N3[C@@H](C4CCOCC4)C(=O)N(CCc4cccc(F)c4)C[C@H]23)cc1` [Compound 52, (6S,9aS)-8-[2-(3-Fluoro-phenyl)-ethyl]-4,7-dioxo-6-(tetrahydro-pyran-4-yl)-hexahydro-pyrazino[1,2-a]pyrimidine-1-carboxylic acid (4-acetyl-phenyl)-amide], for which the IC50 stood at 358 nM.

The compound `CC(=O)c1ccc(NC(=O)N2c3cc4ccccc4cc3C(=O)N3[C@@H](C4CCOCC4)C(=O)N(CCc4cccc(F)c4)C[C@H]23)cc1` [Compound 53, (4S,12S)-2-[2-(3-Fluoro-phenyl)-ethyl]-3,5-dioxo-4-(tetrahydro-pyran-4-yl)-1,3,4,12a-tetrahydro-2H,5H-2,4a,12-triaza-naphthacene-12-carboxylic acid (4-acetyl-phenyl)-amide] gave a half-maximal inhibitory concentration (IC50) of 2970 nM.

Take `CC(=O)c1ccc(NC(=O)N2CCC(=O)N3[C@@H]2CN(CCc2cccc(F)c2)C(=O)[C@@H]3Cc2cncn2C)cc1` [Compound 54, (6S,9aS)-8-[2-(3-Fluoro-phenyl)-ethyl]-6-(3-methyl-3H-imidazol-4-ylmethyl)-4,7-dioxo-hexahydro-pyrazino[1,2-a]pyrimidine-1-carboxylic acid (4-acetyl-phenyl)-amide]: the IC50 came to 1270 nM.

On to `CC(=O)c1ccc(NC(=O)N2CCC(=O)N3[C@@H]2CN(CCc2cccc(F)c2)C(=O)[C@@H]3Cc2cc(F)cc(F)c2)cc1` [Compound 55, (6S,9aS)-6-(3,5-Difluoro-benzyl)-8-[2-(3-fluoro-phenyl)-ethyl]-4,7-dioxo-hexahydro-pyrazino[1,2-a]pyrimidine-1-carboxylic acid (4-acetyl-phenyl)-amide], for which the IC50 turned out to be 400 nM.

`CC(=O)c1ccc(NC(=O)N2CCC(=O)N3[C@@H]2CN(CCc2cccc(F)c2)C(=O)[C@@H]3Cc2cc(F)c(F)c(F)c2)cc1` [Compound 56, (6S,9aS)-8-[2-(3-Fluoro-phenyl)-ethyl]-4,7-dioxo-6-(3,4,5-trifluoro-benzyl)-hexahydro-pyrazino[1,2-a]pyrimidine-1-carboxylic acid (4-acetyl-phenyl)-amide] returned a half-maximal inhibitory concentration (IC50) of 665 nM.

In turn, `CC(=O)c1ccc(NC(=O)N2CCC(=O)N3[C@@H]2CN(CCc2cccc(F)c2)C(=O)[C@@H]3Cc2c(F)c(F)c(F)c(F)c2F)cc1` [Compound 57, (6S,9aS)-8-[2-(3-Fluoro-phenyl)-ethyl]-4,7-dioxo-6-pentafluorophenylmethyl-hexahydro-pyrazino [1,2a]pyrimidine-1-carboxylic acid (4-acetyl-phenyl)-amide] showed an IC50 of 500 nM.

The compound `CC(=O)c1ccc(NC(=O)N2CCC(=O)N3[C@@H]2CN(CCc2cccc(F)c2)C(=O)[C@@H]3Cc2ccc(F)cc2)cc1` [Compound 58, (6S,9aS)-6-(4-Fluoro-benzyl)-8-[2-(3-fluoro-phenyl)-ethyl]-4,7-dioxo-hexahydro-pyrazino[1,2-a]pyrimidine-1-carboxylic acid (4-acetyl-phenyl)-amide] displayed a concentration for half-maximal inhibition (IC50) of 814 nM.

Consider `CC(=O)c1ccc(NC(=O)N2CCC(=O)N3[C@@H](c4ccc(F)c(F)c4)C(=O)N(CCc4ccccc4)C[C@H]23)cc1` [Compound 59, (6S,9aS)-6-(3,4-Difluoro-phenyl)-4,7-dioxo-8-phenethyl-hexahydro-pyrazino[1,2-a]pyrimidine-1-carboxylic acid (4-acetyl-phenyl)-amide], for which the concentration for half-maximal inhibition (IC50) was found to be 271 nM.

As for `CC(=O)c1ccc(NC(=O)N2CCC(=O)N3[C@@H]2CN(CCc2cccc(F)c2)C(=O)[C@@H]3Cc2ccc(F)c(F)c2)cc1` [Compound 62, (6S,9aS)-6-(3,4-Difluoro-benzyl)-8-[2-(3-fluoro-phenyl)-ethyl]-4,7-dioxo-hexahydro-pyrazino[1,2-a]pyrimidine-1-carboxylic acid (4-acetyl-phenyl)-amide], the half-inhibitory concentration (IC50) came to 624 nM.

The compound `CC(=O)c1ccc(NC(=O)N2CCC(=O)N3[C@@H]2CN(CCc2ccccc2)C(=O)[C@@H]3Cc2ccc(F)c(F)c2)cc1` [Compound 63, (6S,9aS)-6-(3,4-Difluoro-benzyl)-4,7-dioxo-8-phenethyl-hexahydro-pyrazino[1,2-a]pyrimidine-1-carboxylic acid (4-acetyl-phenyl)-amide] came in with a half-maximal inhibitory concentration (IC50) of 3040 nM.

As for `CC(=O)c1ccc(NC(=O)N2CCC(=O)N3[C@@H](c4ccccc4)C(=O)N(CCc4ccccc4)C[C@H]23)cc1` [Compound 64, (6S,9aS)-4,7-Dioxo-8-phenethyl-6-phenyl-hexahydro-pyrazino[1,2-a]pyrimidine-1-carboxylic acid (4-acetyl-phenyl)-amide], the IC50 is 473 nM.

In turn, `CC(=O)c1ccc(NC(=O)N2CCC(=O)N3[C@@H]2CN(CCc2ccccc2)C(=O)[C@@H]3CC2CCCCC2)cc1` [Compound 65, (6S,9aS)-6-Cyclohexylmethyl-4,7-dioxo-8-phenethyl-hexahydro-pyrazino[1,2-a]pyrimidine-1-carboxylic acid (4-acetyl-phenyl)-amide] came in with a concentration for half-maximal inhibition (IC50) of 517 nM.

With `NC(=O)c1ccc(NC(=O)N2CCC(=O)N3[C@@H]2CN(CCc2ccccc2)C(=O)[C@@H]3CC2CCCCC2)cc1` [Compound 111, (6S,9aS)-6-Cyclohexylmethyl-4,7-dioxo-8-phenethyl-hexahydro-pyrazino[1,2-a]pyrimidine-1-carboxylic acid (4-carbamoyl-phenyl)-amide], the concentration for half-maximal inhibition (IC50) was determined as 12000 nM.
